What was measured:
[1] = test system: gastric peristalsis; experiment: Testing of the gastric peristalsis (gastric pressure, barium chloride-stimulated stomach of narcotized rats); assay type: in vivo; settings: 20 mg/kg intraperitoneally, BaCl2 50 mg/kg/h i.v. infusion, compared with control value before compound; for Change in gastric pressure-wave amplitude: the values are: decrease in gastric amplitude; for change in vivo at 20 mg/kg: Rattus norvegicus, ip, read-out: Frequency Decrease in %
Description: To determine the functioning of the gastric peristalsis, rats weighing about 200 g are narcotized by means of ketamine hydrochloride and xylazine. A catheter is introduced into the Vena jugularis of the narcotized rats and a tracheal catheter into the trachea. A stomach probe is inserted into their stomach and tied thereto. The probe is connected via a three-way cock with a Statham pressure imparting device (P 23 DB). The stomach is sealed off by a ligature at the pylorus and at the cardia. The stomach is filled with 3 ml of a 0.9% aqueous sodium chloride solution. The pressure waves produced by the stomach are continuously registered by a suitable recording device such by a Watanabe Multicorder (MC 641).
In conducting the test, a control value is obtained by inducing a stimulation of the stomach through a lengthy intravenous infusion of 50 mg/kg/h of bariumchloride and the amplitude and frequency of resultant pressure waves are measured. Subsequently, in order to determine the pharmacological effects, the compounds to be tested are dissolved in physiological sodium chloride solution or are suspended in Tylose MH 50 solution. The solutions or suspensions are then administered intraperitoneally to the rats in a dose of 20 mg/kg. The amplitudes and frequencies of the pressure wave-like movements of the stomach as they occur with the test solution and after administration of the compound to be tested, are compared.

[2] = Determination of acute toxicity (seven-day, single intraperitoneal dose); settings: in vivo, ip, fasting white NMRI mouse, single dose i.p., probit analysis, read-out: LP50 i.p.
Method: The acute seven-day toxicity is determined by intraperitoneal administration of a single dose of the respective compound to a fasting white NMRI mouse. The LD50 -values are calculated via electronic data processing by a probit analysis as described in the book "Grundbegriffe der Biometrie" (Basic Biometrical Definitions) by L. Cavalli-Sforza, page 153 et seq., published by Gustav Fischer Verlag, Stuttgart, 1964.

Structure (SMILES) | Change in gastric pressure-wave amplitude [1] [%] | change in vivo at 20 mg/kg [1] [%] | LD50 at 168 h [2] [mg/kg]
CNC1=CC(=O)c2ccc(C(C)(C)C)cc2OC1 [M, 3-methylamino-8-tert.-butyl-1-benzoxepin-5(2H)-one] | 72 | 10 | –
O=C1C=C(N2CCN(Cc3ccccc3)CC2)COc2ccccc21 [G, 3-(N-benzylpiperazino)-1-benzoxepin-5(2H)-one] | 31 | 10 | 634
CNC1=CC(=O)c2cc(Cl)ccc2OC1 [N, 3-methylamino-7-chloro-1-benzoxepin-5(2H)-one] | 46 | -1 | –
CNC1=CC(=O)c2cc(C)ccc2OC1 [L, 3-methylamino-7-methyl-1-benzoxepin-5(2H)-one] | 75 | 15 | –
CNC1=CC(=O)c2ccccc2OC1 [A, 3-methylamino-1-benzoxepin-5(2H)-one] | 56 | -18 | 664
O=C1C=C(N2CCOCC2)COc2ccccc21 [H, 3-morpholino-1-benzoxepin-5(2H)-one] | 12 | 17 | 650
O=C1C=C(NCCc2ccccc2)COc2ccccc21 [Compound F, 3-phenethylamino-1-benzoxepin-5(2H)-one] | 29 | -7 | –
CNC1=CC(=O)c2ccc(Cl)cc2OC1 [B, 3-methylamino-8-chloro-1-benzoxepin-5(2H)-one] | 58 | -16 | 450
COCCNC1=CC(=O)c2ccccc2OC1 [I, 3-(β-methoxyethylamino)-1-benzoxepin-5(2H)-one] | 46 | 11 | –
NC1=CC(=O)c2ccccc2OC1 [D, 3-amino-1-benzoxepin-5(2H)-one] | 45 | -12 | 544
CNC1=CC(=O)c2cc(F)ccc2OC1 [O, 3-methylamino-7-fluoro-1-benzoxepin-5(2H)-one] | 37 | 1 | –
CNC1=CC(=O)c2ccc(C)cc2OC1 [K, 3-methylamino-8-methyl-1-benzoxepin-5(2H)-one] | 55 | 4 | –
CCCCNC1=CC(=O)c2ccccc2OC1 [E, 3-(n-butylamino)-1-benzoxepin-5(2H)-one] | 26 | 36 | 442
CC(C)NC1=CC(=O)c2ccccc2OC1 [C, 3-isopropylamino-1-benzoxepin-5(2H)-one] | 32 | -2 | 544

— patent US4279905A, “1-Benzoxepin-5 (2H)-one derivatives and pharmaceutical compositions” (Kali-Chemie Pharma GmbH, priority 1979, dated 1981)
